The results in this text go back to ChEMBL document CHEMBL4673347, “Discovery of new thieno[2,3-d]pyrimidine and thiazolo[5,4-d]pyrimidine derivatives as orally active phosphoinositide 3-kinase inhibitors” (Bioorg Med Chem, 2021).

For experiment [1], the target named is Phosphatidylinositol 4,5-bisphosphate 3-kinase catalytic subunit alpha isoform (Homo sapiens, UniProt P42336). The experiment is described as follows: Inhibition of recombinant human full length His-tagged PI3Kalpha expressed in baculovirus expression system using PIP2 as substrate by ADP-Glo reagent based assay. (ADP-Glo first removes unused ATP, then detects ADP through luciferase.)

In experiment [2] the test system is HGC-27. The experiment is described as follows: Antiproliferative activity against human HGC-27 cells assessed as reduction in cell viability incubated for 72 hrs measured after 4 hrs of MTT addition by MTT assay. Type of experiment: functional, cell-based. (Formazan colour is commonly taken as a measure of viable cells.)
The subject of experiment [3] is HGC-27. As to the kind of experiment: Induction of apoptosis in human HGC-27 cells assessed as viable cells at 500 nM incubated for 24 hrs by annexin V-FITC and propidium iodide based staining based flow cytometry analysis (reference value: 83.7 %). Conditions: read-out: Activity. Type of experiment: functional. In general terms: A flow cytometer gives signals particle by particle.

For experiment [4], the system named is HGC-27. As to the kind of experiment: Induction of apoptosis in human HGC-27 cells assessed as early apoptotic cells at 500 nM incubated for 24 hrs by annexin V-FITC and propidium iodide based staining based flow cytometry analysis (reference value: 6.22 %). Type of experiment: functional.
In experiment [5] the test system is HGC-27. The experiment is described as follows: Induction of apoptosis in human HGC-27 cells assessed as late apoptotic cells at 500 nM incubated for 24 hrs by annexin V-FITC and propidium iodide based staining based flow cytometry analysis (reference value: 8.15 %). Type of experiment: functional.
Experiment [6] deals with HGC-27. The experiment is described as follows: Induction of apoptosis in human HGC-27 cells assessed as necrotic cells at 500 nM incubated for 24 hrs by annexin V-FITC and propidium iodide based staining based flow cytometry analysis (reference value: 1.95 %). Type of experiment: functional.

In general, IC50 refers to the midpoint of a concentration-inhibition curve.

SMILES strings stand for the structures.

Chain of Phosphatidylinositol 4,5-bisphosphate 3-kinase catalytic subunit alpha isoform (P42336 whole entry, canonical isoform): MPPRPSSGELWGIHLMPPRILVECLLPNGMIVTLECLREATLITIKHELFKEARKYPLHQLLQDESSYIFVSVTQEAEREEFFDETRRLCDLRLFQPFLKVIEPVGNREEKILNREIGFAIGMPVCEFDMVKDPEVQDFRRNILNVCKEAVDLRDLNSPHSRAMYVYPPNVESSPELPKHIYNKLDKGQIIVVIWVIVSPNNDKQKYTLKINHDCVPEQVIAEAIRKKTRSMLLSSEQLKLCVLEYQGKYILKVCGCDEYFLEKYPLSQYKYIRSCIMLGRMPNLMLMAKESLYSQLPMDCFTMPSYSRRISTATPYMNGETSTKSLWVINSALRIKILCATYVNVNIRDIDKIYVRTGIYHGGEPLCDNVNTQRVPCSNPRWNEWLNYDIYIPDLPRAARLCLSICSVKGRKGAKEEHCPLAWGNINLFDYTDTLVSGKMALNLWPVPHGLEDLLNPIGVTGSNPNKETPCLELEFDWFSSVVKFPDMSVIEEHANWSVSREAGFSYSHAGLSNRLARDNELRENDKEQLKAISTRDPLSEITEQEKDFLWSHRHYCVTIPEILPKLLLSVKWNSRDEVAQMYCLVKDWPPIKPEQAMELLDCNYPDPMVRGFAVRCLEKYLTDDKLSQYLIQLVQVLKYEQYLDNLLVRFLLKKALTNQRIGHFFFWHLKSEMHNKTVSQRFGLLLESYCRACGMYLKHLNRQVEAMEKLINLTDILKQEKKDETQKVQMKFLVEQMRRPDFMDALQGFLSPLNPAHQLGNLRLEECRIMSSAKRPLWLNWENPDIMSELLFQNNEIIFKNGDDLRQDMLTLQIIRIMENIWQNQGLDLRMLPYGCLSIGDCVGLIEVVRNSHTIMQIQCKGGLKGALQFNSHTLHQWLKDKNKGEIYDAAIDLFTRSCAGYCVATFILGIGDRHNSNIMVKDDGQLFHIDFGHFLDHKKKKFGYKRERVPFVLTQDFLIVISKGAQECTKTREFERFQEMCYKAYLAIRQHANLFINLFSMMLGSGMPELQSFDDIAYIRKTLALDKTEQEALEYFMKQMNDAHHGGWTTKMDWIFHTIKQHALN

`COc1ncc(-c2nc3c(N4CC(C)OC(C)C4)ncnc3s2)cc1NS(=O)(=O)c1ccc(F)cc1F` (stereo unspecified): the 50% inhibitory concentration (IC50) in experiment [1] stood at 11 nM; in experiment [2] it was 270 nM.
On the same counts, the results for `COc1ncc(-c2cc3c(N4CCCCC4)ncnc3s2)cc1NS(=O)(=O)c1ccc(F)cc1F` are 14 nM and 1200 nM.
On the same counts, the results for `COc1ncc(-c2cc3c(N4CCCC4)ncnc3s2)cc1NS(=O)(=O)c1ccc(F)cc1F` are 14 nM and 2300 nM.
The like results for `COc1ncc(-c2cc3c(-c4ccncc4)ncnc3s2)cc1NS(=O)(=O)c1ccc(F)cc1F` were, in that order, 5.1 nM and 1700 nM.
In the case of `COc1ncc(-c2cc3c(N4CC(OC)C4)ncnc3s2)cc1NS(=O)(=O)c1ccc(F)cc1F`, the IC50 in experiment [1] is 7.2 nM; in experiment [2] it was 830 nM.
On the same counts, the results for `COc1ncc(-c2cc3c(N4CCSCC4)ncnc3s2)cc1NS(=O)(=O)c1ccc(F)cc1F` are 17 nM and 810 nM.
On the same counts, the results for `COc1ncc(-c2nc3c(N4CCCC4)ncnc3s2)cc1NS(=O)(=O)c1ccc(F)cc1F` are 3.5 nM and 1200 nM.
On the same counts, the results for `COc1ncc(-c2cc3c(N4CC5CCCC5C4)ncnc3s2)cc1NS(=O)(=O)c1ccc(F)cc1F` (stereo unspecified) are 47 nM and 1900 nM.
For the molecule `COc1ncc(-c2nc3c(N4CCOC[C@@H]4C)ncnc3s2)cc1NS(=O)(=O)c1ccc(F)cc1F`, the figures for the 50% inhibitory concentration (IC50) in experiment [1] and in experiment [2] were 2 nM and 170 nM, respectively.
On the same counts, the results for `COc1ncc(-c2nc3c(N4CCCCC4)ncnc3s2)cc1NS(=O)(=O)c1ccc(F)cc1F` are 8.8 nM and 960 nM.
On the same counts, the results for `COc1ncc(-c2nc3c(N4CCC(OC)CC4)ncnc3s2)cc1NS(=O)(=O)c1ccc(F)cc1F` are 1.3 nM and 74 nM.
The like results for `COc1ncc(-c2cc3c(N4CC(C)OC(C)C4)ncnc3s2)cc1NS(=O)(=O)c1ccc(F)cc1F` (racemic) were, in that order, 16 nM and 860 nM.
For the molecule `Nc1cc(C(F)(F)F)c(-c2cc(N3CCOCC3)nc(N3CCOCC3)n2)cn1` [BUPARLISIB], in experiment [3], the viability at 0.5 µM worked out at 74.9%. Moreover, the figures for the Activity in experiment [4], in experiment [5] and in experiment [6] were 15.9%, 8.93% and 0.3%, respectively.
On to `COc1ncc(-c2cc3c(N4CC5COCC5C4)ncnc3s2)cc1NS(=O)(=O)c1ccc(F)cc1F` (stereo unspecified), for which the IC50 in experiment [1] was determined as 14 nM; in experiment [2] it was 300 nM.
The like results for `COc1ncc(-c2cc3c(N4CCOC[C@@H]4C)ncnc3s2)cc1NS(=O)(=O)c1ccc(F)cc1F` were, in that order, 11 nM and 670 nM.
The like results for `COc1ncc(-c2cc3c(N4CCN(C)C(=O)C4)ncnc3s2)cc1NS(=O)(=O)c1ccc(F)cc1F` were, in that order, 16 nM and 920 nM.
For the molecule `COc1ncc(-c2cc3c(N4CCOC[C@H]4C)ncnc3s2)cc1NS(=O)(=O)c1ccc(F)cc1F`, the results for the IC50 in experiment [1] and in experiment [2] were 14 nM and 470 nM, respectively.
On the same counts, the results for `COc1ncc(-c2nc3c(N4CC5CCCC5C4)ncnc3s2)cc1NS(=O)(=O)c1ccc(F)cc1F` (stereo unspecified) are 6.3 nM and 310 nM.
The like results for `COc1ncc(-c2cc3c(N4C[C@@H](C)O[C@@H](C)C4)ncnc3s2)cc1NS(=O)(=O)c1ccc(F)cc1F` were, in that order, 15 nM and 560 nM.
On the same counts, the results for `COc1ncc(-c2cc3c(N4CCC(OC)CC4)ncnc3s2)cc1NS(=O)(=O)c1ccc(F)cc1F` are 4.8 nM and 280 nM.
With `COc1ncc(-c2nc3c(N4CCOC[C@H]4C)ncnc3s2)cc1NS(=O)(=O)c1ccc(F)cc1F`, the half-maximal inhibitory concentration (IC50) came to 1.9 nM in experiment [1] and 47 nM in experiment [2].
On the same counts, the results for `COc1ncc(-c2cc3c(N4CCN(C)CC4)ncnc3s2)cc1NS(=O)(=O)c1ccc(F)cc1F` are 109 nM and 560 nM.
